Starred links: 1 amine or outer side, 2 acyl side, 3 side chain; linkers in the order of their positions; H or OH if unused. Positions of bridges follow the written chain, without caps; N, C: chain ends. Non-standard residues stand in square brackets, D forms with d. Residues, ends and D or L forms follow the SMILES beside them. *: point of attachment. X3 = CN(CCCCC(=O)N[C@@H](CS[*:2])C(=O)[*:1])[*:3]; Trp(7-Me) = Cc1cccc2c(C[C@H](N)C(=O)O)c[nH]c12; X1 = O=C(CCCCN[*:3])N[C@@H](CS[*:2])C(=O)[*:1]; 2Nal = N[C@@H](Cc1ccc2ccccc2c1)C(=O)O; AEF = NCCOc1ccc(C[C@H](N)C(=O)O)cc1; 3Pal = N[C@@H](Cc1cccnc1)C(=O)O; αMeL = CC(C)C[C@](C)(N)C(=O)O; Thp = NC1(C(=O)O)CCOCC1; Me2NCH2CH2 = CN(C)CC*; Aib = CC(C)(N)C(=O)O; Ahx = NCCCCCC(=O)O; Ava = NCCCCC(=O)O; Sar = CNCC(=O)O
Key:
Pancreatin = assay: Protease stability in simulated intestinal fluid (Pancreatin-SIF, FaSSIF); format: in vitro ADME; conditions: 1 μM peptide, 37° C.; for remaining at 1 h, 1 µM: 60 min, read-out: FaSSIF 60 (min), remaining percent of peptide; for remaining at 2 h, 1 µM: 120 min, read-out: FaSSIF 120 (min), remaining percent of peptide; for remaining at 4 h, 1 µM: 240 min, read-out: FaSSIF 240 (min), remaining percent of peptide
Outline: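 LC-MS/MS peak areas at 0, 60, 120 and 240 min, normalised to time 0 as 100%, give percent remaining. Reactions used 1 μM final peptide at 37° C in pancreatin-SIF (1 mg pancreatin in 10 mL SIF concentrate) and were stopped with ethanol containing 0.1% HCOOH.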

Pepsin = system: T1, Pepsin; assay: Protease stability in simulated gastric fluid (Pepsin-SGF, FaSSGF); format: in vitro ADME; conditions: simulated gastric fluid with pepsin (Pepsin-SGF), 60 min, 1 μM peptide, 37° C., read-out: FaSSGF 60 (min), remaining percent of peptide
T1 construct: purchased Merck Millipore
Outline: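 LCMS/MS peak areas, normalised to the time-0 sample as 100%, give percent remaining. Conditions: 37° C incubation of 1 μM final peptide in simulated gastric fluid with pepsin; ethanol/0.1% HCOOH quench at 0, 60, 120, 240 min.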

[1] = Chemical stability assessment of peptides (relative purity loss); format: physicochemical; conditions: 24 hours at 37° C.; for Chemical stability (relative purity loss) Buffer pH 1.2: 50 mM HCl pH 1.2 + acetonitrile (1:1); for Chemical stability (relative purity loss) Buffer pH 6.5: 50 mM phosphate buffer pH 6.5 + acetonitrile (1:1); for Chemical stability (relative purity loss) Buffer pH 7.4: 50 mM phosphate buffer pH 7.4 + acetonitrile (1:1)
Outline: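 Peptide solutions at 1 mg/ml (purity-corrected) in 1:1 acetonitrile with 50 mM HCl pH 1.2, or 50 mM phosphate pH 6.5 or pH 7.4, held 24 hours at 2° C. and 37° C. Supernatants analysed by UHPLC-UV; relative purity loss taken as percent drop in peak-area purity from 0 to 24 hours at 37° C.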

[2] = system: IL-23 induced STAT3 signaling in HEK-Blue™ IL-23 cells; assay: IL-23 induced STAT3 signaling in HEK-Blue IL-23 cells (SEAP reporter); format: cell-based; conditions: human IL23 0.25 ng/ml, read-out: pSTAT3
Outline: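 Secreted SEAP, read at OD 620-655 nm after 45 min QUANTI-Blue development, reports STAT3 activation. Beforehand, cells were exposed to peptide dilutions for 60 min at 37 °C and then to 0.25 ng/ml final human IL-23 overnight, at 10,000 cells/well.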

[3] = molecular target: T2, human interleukin-23 receptor (recombinant human IL-23R-Fc chimera) (Homo sapiens, UniProt Q5VWK5); assay: Human ELISA IL23/IL23R (assay for specific human IL23R antagonists); format: binding; conditions: Table 10; read-out: Human ELISA IL23/IL23R IC50
T2 construct: Fc (IgG Fc fusion)
Outline: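 Competition format: peptide dilutions compete for IL23R-Fc chimera (0.1 μg/ml final, 60 min, room temperature) binding to immobilized human IL23 coated at […] overnight at 4 °C. Read-out is fluorogenic HRP signal from goat anti-hu-IgG1 detecting captured receptor.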

SMILES	remaining at 1 h, 1 µM (Pancreatin) [%]	remaining at 2 h, 1 µM (Pancreatin) [%]	remaining at 4 h, 1 µM (Pancreatin) [%]	remaining at 1 h, 1 µM (Pepsin) [%]	Chemical stability (relative purity loss) Buffer pH 1.2 [1] [%]	Chemical stability (relative purity loss) Buffer pH 6.5 [1] [%]	Chemical stability (relative purity loss) Buffer pH 7.4 [1] [%]	IC50 [2] [nM]	IC50 [3] [nM]
CC(=O)NCCCC[C@@H]1NC(=O)[C@H](Cc2c[nH]c3c(C)cccc23)NC(=O)[C@H]([C@@H](C)O)NC(=O)[C@H](CC(N)=O)NC(=O)[C@@H]2CSSC[C@H](NC1=O)C(=O)N[C@@H](Cc1ccc(OCCN(C)C)cc1)C(=O)N[C@@H](Cc1ccc3ccccc3c1)C(=O)N[C@@](C)(CC(C)C)C(=O)N[C@H](C(=O)N[C@@H](CC(N)=O)C(=O)N[C@@H](Cc1c[nH]cn1)C(=O)N(C)CC(N)=O)CCC(=O)NCCCCC(=O)N2 [compound 47] ([Ava]CNT[Trp(7-Me)]K(Ac)CY(Me2NCH2CH2)[2Nal][αMeL]ENH[Sar]-NH2; disulfide 2-7; lactam N-11)	87	85	82	96	2.9	0.6	0.9	0.57	0.31
C[C@@H](O)[C@@H]1NC(=O)[C@H](CC(N)=O)NC(=O)[C@@H]2CSSC[C@H](NC(=O)[C@H](CCC(N)=O)NC(=O)[C@H](Cc3c[nH]c4ccccc34)NC1=O)C(=O)N[C@@H](Cc1ccc(OCCN)cc1)C(=O)N[C@@H](Cc1ccc3ccccc3c1)C(=O)NC(C)(C)C(=O)N[C@H](C(=O)N[C@@H](CC(N)=O)C(=O)NCC(N)=O)CC(=O)NCCCCCC(=O)N2 [compound 9] ([Ahx]CNTWQC[AEF][2Nal][Aib]DNG-NH2; disulfide 2-7; lactam N-11)	102	100	85	2	13.8	5.5	19.8	65	0.44
COc1ccc(C[C@@H]2NC(=O)[C@@H]3CSSC[C@H](NC(=O)CCCCNC(=O)CC[C@@H](C(=O)N[C@@H](CC(N)=O)C(=O)NCC(N)=O)NC(=O)C(C)(C)NC(=O)[C@H](Cc4ccc5ccccc5c4)NC2=O)C(=O)N[C@@H](CC(N)=O)C(=O)N[C@@H]([C@@H](C)O)C(=O)N[C@@H](Cc2c[nH]c4ccccc24)C(=O)N[C@@H](CCC(N)=O)C(=O)N3)cc1 [compound 4] ([Ava]CNTWQCY(Me)[2Nal][Aib]ENG-NH2; disulfide 2-7; lactam N-11)	91	82	73	1	22.4	0.7	7.0	34.8	0.95
Cc1cccc2c(C[C@@H]3NC(=O)[C@H]([C@@H](C)O)NC(=O)[C@H](CC(N)=O)NC(=O)[C@@H]4CSSC[C@H](NC(=O)[C@H](CC(C)C)NC3=O)C(=O)N[C@@H](Cc3ccc(OCCN(C)C)cc3)C(=O)N[C@@H](Cc3ccc5ccccc5c3)C(=O)NC3(CCOCC3)C(=O)N[C@H](C(=O)N[C@@H](CC(N)=O)C(=O)N[C@@H](Cc3cccnc3)C(=O)N(C)CC(N)=O)CCC(=O)NCCCCC(=O)N4)c[nH]c12 [compound 24] ([Ava]CNT[Trp(7-Me)]LCY(Me2NCH2CH2)[2Nal][Thp]EN[3Pal][Sar]-NH2; disulfide 2-7; lactam N-11)	80	79	76	84	7.2	0.0	0.4	0.59	0.4
CC(C)C[C@@H](NC(=O)[C@H](CC(N)=O)NC(=O)[C@@H]1CCC(=O)NCCCCC(=O)N[C@H]2CSSC[C@H](NC(=O)[C@H](CCC(N)=O)NC(=O)[C@H](Cc3c[nH]c4ccccc34)NC(=O)[C@H]([C@@H](C)O)NC(=O)[C@H](CC(N)=O)NC2=O)C(=O)N[C@@H](Cc2ccc(OCCN(C)C)cc2)C(=O)N[C@@H](Cc2ccc3ccccc3c2)C(=O)N[C@@](C)(CC(C)C)C(=O)N1)C(N)=O [compound 10] ([Ava]CNTWQCY(Me2NCH2CH2)[2Nal][αMeL]EN[dL]-NH2; disulfide 2-7; lactam N-11)	84	81	80	77	6.7	0.1	0.4	25.8	0.58
CC(=O)N[C@H]1CCCCNC(=O)[C@@H]2CSSC[C@H](NC(=O)[C@H](CCC(N)=O)NC(=O)[C@H](Cc3c[nH]c4ccccc34)NC1=O)C(=O)N[C@@H](Cc1ccc(OCCN)cc1)C(=O)N[C@@H](Cc1ccc3ccccc3c1)C(=O)NC(C)(C)C(=O)N[C@H](C(=O)N[C@@H](CC(N)=O)C(=O)NCC(N)=O)CCC(=O)N(C)CCCCC(=O)N2 [compound 15] (Ac-KWQC[AEF][2Nal][Aib]ENG-NH2; linker 1-4-8 via X3)	81	65	43	30	14.3	2.9	5.1	29.2	0.2
CC(=O)N[C@H]1CCCCNC(=O)[C@@H]2CSSC[C@H](NC(=O)[C@H](CCC(N)=O)NC(=O)[C@H](Cc3c[nH]c4ccccc34)NC1=O)C(=O)N[C@@H](Cc1ccc(OCCN)cc1)C(=O)N[C@@H](Cc1ccc3ccccc3c1)C(=O)N[C@@](C)(CC(C)C)C(=O)N[C@H](C(=O)N[C@@H](C)C(=O)NCC(N)=O)CCC(=O)N(C)CCCCC(=O)N2 [compound 18] (Ac-KWQC[AEF][2Nal][αMeL]EAG-NH2; linker 1-4-8 via X3)	81	76	76	60	11.4	0.1	0.0	69.5	0.71
CC(=O)NCCCC[C@@H]1NC(=O)[C@H](Cc2c[nH]c3c(C)cccc23)NC(=O)[C@H]([C@@H](C)O)NC(=O)[C@H](CC(N)=O)NC(=O)[C@@H]2CSSC[C@H](NC1=O)C(=O)N[C@@H](Cc1ccc(OCCN(C)C)cc1)C(=O)N[C@@H](Cc1ccc3ccccc3c1)C(=O)NC1(CCOCC1)C(=O)N[C@H](C(=O)N[C@@H](CC(N)=O)C(=O)N[C@@H](Cc1c[nH]cn1)C(=O)N(C)CC(N)=O)CCC(=O)NCCCCC(=O)N2 [compound 46] ([Ava]CNT[Trp(7-Me)]K(Ac)CY(Me2NCH2CH2)[2Nal][Thp]ENH[Sar]-NH2; disulfide 2-7; lactam N-11)	89	82	81	100	9.9	1.9	1.8	0.84	0.36
CC(=O)N[C@H]1CCCCNC(=O)[C@@H]2CSSC[C@H](NC(=O)[C@H](CCC(N)=O)NC(=O)[C@H](Cc3c[nH]c4ccccc34)NC1=O)C(=O)N[C@@H](Cc1ccc(OCCN(C)C)cc1)C(=O)N[C@@H](Cc1ccc3ccccc3c1)C(=O)NC(C)(C)C(=O)N[C@H](C(=O)N[C@@H](C)C(=O)NCC(N)=O)CCC(=O)NCCCCC(=O)N2 [compound 32] (Ac-KWQCY(Me2NCH2CH2)[2Nal][Aib]EAG-NH2; linker 1-4-8 via X1)	89	77	55	78	10.5	0.0	1.0	20.5	0.48

Source: patent publication US20260258084A1, “New Peptides as Selective IL-23 Receptor Antagonists” (Sanofi, priority 2022, published 2026)
